No end group written: not given here.
Columns and labels:
Type in all cases: cell-based
Verticillium dahliae = conditions: V dahliae, 48 hours of incubation
Saccharomyces cerevisiae = assay: Inhibitory activity against yeast; set-up: key: +++:complete inhibition; +:some inhibition; -:no inhibition
Method: The inhibitory activity of Mj-AMPs against yeast, Saccharomyces cerevisiae was tested. The results shown in Table 5 indicate that Mj-AMPs do inhibit the growth of yeast at concentrations of 500 μg/ml or above.

Fusarium culmorum = conditions: F culmorum, 48 hours of incubation
[1] = system: Fusarium oxysporum f.sp. pisi; conditions: 48 hours of incubation
Phoma betae = conditions: P betae, 48 hours of incubation
Erwinia carotovora = assay: Antibacterial activity in vitro test; conditions: E carotovora, 48 hours
Method: The antibacterial activity of the Mj-AMPs was tested against a range of gram-positive and gram-negative bacteria: Bacillus megaterium, Sarcina lutea, Escherichia coli and Erwinia carotovora. β-purothionin and UDA were also tested for comparison (see Example 7). Tests were performed in soft agarose medium containing 1% tryptone and, with or without 1 mM CaCl2 and 50 mM KCl. Absorbance, 595 nm, of the culture was measured after 48 hours.

Substance: Mj-AMP1: antimicrobial protein from Mirabilis jalapa seeds, dimer of two 4 kDa subunits, 37 residues, SEQ ID NO:1 (QCIGNGGRCNENVGPPYCCSGFCLRQPGQGYGYCKNR; cysteine pairing not given here; also: homodimer)
- IC50 (Verticillium dahliae): 12 µg/mL
- Inhibitory activity against yeast (Saccharomyces cerevisiae; with Ca/K, 5 μg/ml): -
- Inhibitory activity against yeast (Saccharomyces cerevisiae; with Ca/K, 50 μg/ml): -
- Inhibitory activity against yeast (Saccharomyces cerevisiae; with Ca/K, 500 μg/ml): +++
- Inhibitory activity against yeast (Saccharomyces cerevisiae; without Ca/K, 5 μg/ml): +
- Inhibitory activity against yeast (Saccharomyces cerevisiae; without Ca/K, 50 μg/ml): +++
- Inhibitory activity against yeast (Saccharomyces cerevisiae; without Ca/K, 500 μg/ml): +++
- IC50 (Fusarium culmorum): 30 µg/mL
- IC50 [1]: 15 µg/mL
- IC50 (Phoma betae): 25 µg/mL
- IC50 (Erwinia carotovora; MEDIUM +Ca/K (1 mM CaCl2 and 50 mM KCl)): > 500 µg/mL
- IC50 (Erwinia carotovora; MEDIUM -Ca/K): > 500 µg/mL
